In the assay the target is T1, Concanavalin A (Canavalia ensiformis, UniProt P02866).
T1 construct: purchased Sigma C-5275
The experiment in a line: Homogeneous cubic phase dispersion assay: displacement of biotinylated mannotriose-avidin/HRP, Dextran Blue detection. As to conditions: 500 microliters of saturated solution added to 3.0 ml. Format: binding. Here is the method: Experimental Results—A cubic phase was first prepared by mixing 0.752 grams of Pluronic P123 (an insoluble surfactant), 0.705 grams of linalool, and 0.703 grams of water. An amount of 1.005 grams of this cubic phase was put in a glass flask together with 0.054 grams of the rhamnolipid surfactant JBR-99 (Jeneil Biosurfactant, Inc.) and 35 ml of pH 4.5 acetate buffer containing 4 mM MnCl2 and 4 mM CaCl2. The flask was then sonicated to disperse the cubic phase. Following this, the dispersion was microfluidized in a model 110S Microfluidizer (Microfluidics, Inc.) to a particle size that was fine enough where the absorbance measured on an Ultrospec 3000 UV-Vis spectrometer, at a wavelength of 620 nm, was about 0.2 absorbance units.
The following reagents were then added to 2 ml of the cubic phase dispersion: […]
After the addition of the Dextran Blue-based Detection System, absorbance readings at 620 nm were monitored continuously. After the readings stabilized at 0.40 absorbance units, 500 microliters of Displacement Solution were added. […]
Upon addition of this alpha methylmannoside—the analyte—the absorbance dropped from 0.40 to 0.26 absorbance units. […] The majority of the decrease in absorbance was due to the enzymatic action of displaced HRP on the Dextran Blue.

For the compound `COC1O[C@H](CO)[C@@H](O)[C@H](O)[C@@H]1O` (stereo partly drawn) [alpha methylmannoside], the “decrease in absorbance at 620 nm” value (14% expected from dilution alone) came out at 35%. Further, the “absorbance at 620 nm after addition of analyte” value (reading before addition 0.40) worked out at 0.26 absorbance units.
